Results on four compounds are retold here after patent US11492351B2, “MTA-cooperative PRMT5 inhibitors” (Mirati Therapeutics, Inc., priority 2019, dated 2022).

Experiment [1] deals with T1, PRMT5/MEP50 complex (Homo sapiens (Human), UniProt O14744). The experiment can be described thus: PRMT5:MEP50 FlashPlate Assay (histone H4 peptide, plus and minus MTA). The experiment is classed as biochemical. As to the method:
(§1) The PRMT5 inhibitory activity of compounds of the present invention was determined using either a PRMT5:MEP50 FlashPlate Assay (Reaction Biology Corporation) or a PRMT5:MEP50 HotSpot Assay (Reaction Biology Corporation).
1. PRMT5:MEP50 FlashPlate Assay

Experiment [2] has as its target T1, PRMT5/MEP50 complex. Description: PRMT5:MEP50 HotSpot Assay (full-length histone H2A, plus and minus MTA). The experiment is classed as biochemical. The procedure: as §1
The assay uses recombinant full-length histone H2A as the PRMT5 substrate. […] The reaction was stopped and transferred to filter paper for detection. The amount of tritiated H2A in each sample was determined using a scintillation counter.

[3] abbreviates: in the absence of MTA, read-out: IC50.
The mark [4] stands for this setting: read-out: IC50 + 2 μM MTA, in the presence of 2 μM MTA.

T1 sequence (O14744 whole entry): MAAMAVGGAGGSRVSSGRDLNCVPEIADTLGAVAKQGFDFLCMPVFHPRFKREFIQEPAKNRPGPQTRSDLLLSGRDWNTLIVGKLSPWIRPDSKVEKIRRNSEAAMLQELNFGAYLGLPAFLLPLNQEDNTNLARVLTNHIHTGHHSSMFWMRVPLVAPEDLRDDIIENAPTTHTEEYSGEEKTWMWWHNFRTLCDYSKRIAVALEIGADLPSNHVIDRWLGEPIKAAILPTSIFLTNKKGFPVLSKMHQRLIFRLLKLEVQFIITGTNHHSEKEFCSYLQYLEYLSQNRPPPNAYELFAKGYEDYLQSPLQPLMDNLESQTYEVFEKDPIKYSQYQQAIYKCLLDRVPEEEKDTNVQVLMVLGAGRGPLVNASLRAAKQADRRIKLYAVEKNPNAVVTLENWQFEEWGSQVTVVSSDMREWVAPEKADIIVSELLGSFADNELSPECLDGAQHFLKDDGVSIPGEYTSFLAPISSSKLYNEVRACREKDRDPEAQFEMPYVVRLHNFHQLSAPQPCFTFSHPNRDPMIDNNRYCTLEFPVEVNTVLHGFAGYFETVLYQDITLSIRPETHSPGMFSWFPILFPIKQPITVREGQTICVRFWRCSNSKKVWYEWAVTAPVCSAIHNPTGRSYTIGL
T1 sequence (Q9BQA1 whole entry partner): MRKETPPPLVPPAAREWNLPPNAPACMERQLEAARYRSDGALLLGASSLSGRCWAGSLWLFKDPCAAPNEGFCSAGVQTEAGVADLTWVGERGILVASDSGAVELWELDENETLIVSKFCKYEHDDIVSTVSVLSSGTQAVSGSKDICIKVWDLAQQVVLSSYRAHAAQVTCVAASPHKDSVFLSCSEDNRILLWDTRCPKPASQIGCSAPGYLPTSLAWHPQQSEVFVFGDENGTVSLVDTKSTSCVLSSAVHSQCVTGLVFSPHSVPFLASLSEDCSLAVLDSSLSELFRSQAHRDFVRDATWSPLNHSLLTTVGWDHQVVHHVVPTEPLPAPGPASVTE

One may read the IC50 as the midpoint of a concentration-inhibition curve. Take `Cc1cc2c(=O)[nH]nc(CN)c2cc1-c1cncc(C#N)c1` [Example 3-38]: the IC50 at PRMT5/MEP50 complex [1] (setting [3]) came to 4.94 µM; at PRMT5/MEP50 complex [1] (setting [4]), 0.37 µM.

Consider `Cn1ncc(-c2ccc3c(=O)[nH]nc([C@H](N)C(F)F)c3c2)c1-c1ccc2ccccc2c1C#N` [Example 9-6, 2-[4-[4-[(1S)-1-amino-2,2-difluoro-ethyl]-1-oxo-2H-phthalazin-6-yl]-2-methyl-pyrazol-3-yl]naphthalene-1-carbonitrile], for which the IC50 on PRMT5/MEP50 complex [2] (setting [4]) is over 10 µM.

As for `Cc1nc2cncc(-c3ccc4c(=O)[nH]nc(CN)c4c3)c2o1` [Example 4-110, 4-(aminomethyl)-6-(2-methyloxazolo[4,5-c]pyridin-7-yl)phthalazin-1(2H)-one], on PRMT5/MEP50 complex [1] (setting [3]), the IC50 is over 100 µM.

As for `Cn1ncc(-c2ccc3c(=O)[nH]nc(CN)c3c2)c1-c1ccccc1C#N` [Example 4-100, 2-(4-(4-(aminomethyl)-1-oxo-1,2-dihydrophthalazin-6-yl)-1-methyl-1H-pyrazol-5-yl)benzonitrile], the IC50 at PRMT5/MEP50 complex [2] (setting [3]) is over 10 µM.
